Patent US20040229246A1, “Diagnostic markers for therapeutic treatment” (Can-Fite Biopharam Ltd., priority 2002, published 2004)
“Also recorded” adds a separate entry of the source. Peptide text beside a SMILES is read from it. * marks the point of attachment. Cbz = O=C(OCc1ccccc1)*

Legend:
PKA and GSK-3β = assay: Receptor functionality: Western blot of PKA and GSK-3β in B16-F10 melanoma cells; type: cell-based
Description: (§1) To detect the level of expression of the A3AR proteins Western blot analysis was performed. Cells were incubated in the presence and absence of IB-MECA (10 nM), MRS1523 (10 nM), Forskolin (50 nM), 8 Br cAMP (100 μM), Cycloheximide 20 μg/ml or MG 132 (20 nM) for different time periods at 37° C. Cells were then rinsed with ice-cold PBS and transferred to ice-cold lysis buffer (TNN buffer, 50 mM Tris buffer pH=7.5, 150 mM NaCl, NP 40). In the experiment examining the effect of trypsin on A3AR expression, cells were incubated with 0.5 ml of 0.25% trypsin for 5 minutes. The trypsinized cells were washed again with ice-cold PBS, harvested by centrifugation and subjected to lysis in TNN buffer. Cell debris was removed by centrifugation for 10 minutes, at 7500 xg. The supernatant was utilized for Western Blot analysis. Protein concentrations were determined using the Bio-Rad protein assay dye reagent. Equal amounts of the sample (50 μg) were separated by SDS-PAGE, using 12% polyacrylamide gels. The resolved proteins were then electroblotted onto nitrocellulose membranes (Schleicher & Schuell, Keene, NH, USA). Membranes were blocked with 1% bovine serum albumin and incubated with the desired primary antibody (dilution 1:1000) for 24 hours at 4° C. Blots were then washed and incubated with a secondary antibody for 1 hour at room temperature. Bands were recorded using BCIP/NBT color development kit (Promega, Madison, W1, USA). Data presented in the different figures are representative of at least three different experiments.
To test receptor functionality, the protein expression level of PKA and GSK-3β, which are modulated downstream to A3AR activation, was examined. Functional receptor sensitization by IB-MECA was observed after 15 and 60 minutes and was manifested by decreased PKA and increased GSK-3β levels. […] Indeed, the modulatory effect of IB-MECA on PKA and GSK-3β was reversed in the presence of the above agents (FIG. 8a, 8b and 8c).

A3AR [1] = target: T1, A3AR (Mus musculus, UniProt Q61618); assay: Western blot analysis of A3AR protein in B16-F10 melanoma cells; type: cell-based; conditions: B16-F10 melanoma cells exposed for 180 minutes to IB-MECA in the presence of the inhibitor
T1 construct: endogenous in cells; host or cells: B16-F10 melanoma cells
T1 sequence (Q61618 1-319): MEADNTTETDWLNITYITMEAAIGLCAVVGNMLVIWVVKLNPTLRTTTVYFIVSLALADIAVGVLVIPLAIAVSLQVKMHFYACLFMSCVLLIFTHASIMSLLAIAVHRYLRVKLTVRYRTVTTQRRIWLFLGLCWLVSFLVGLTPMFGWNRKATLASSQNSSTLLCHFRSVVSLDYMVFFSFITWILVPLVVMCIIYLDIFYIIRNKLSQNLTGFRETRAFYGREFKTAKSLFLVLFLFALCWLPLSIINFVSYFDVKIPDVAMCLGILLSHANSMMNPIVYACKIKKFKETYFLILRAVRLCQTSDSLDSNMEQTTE
Description: as §1
Receptor internalization by treating melanoma cells with trypsin, which removes the cell surface receptor, was examined.
Time dependent expression of A3AR in the melanoma cells was examined by Western blot analysis.

A3AR [2] = assay: Northern blot analysis of A3AR mRNA in B16-F10 melanoma cells; type: cell-based; conditions: B16-F10 melanoma cells, antagonist with IB-MECA
Description: Total RNA was isolated from B16-F10 melanoma cells treated with IB-MECA, utilizing Tri-reagent (Sigma, Saint Louis). The samples were then subjected twice to phenol:chloroform extraction and washed with chloroform. RNA was precipitated with sodium acetate/ethanol following washing with ethanol, then denatured, separated (25 μg per lane) in 1.1% formaldehyde agarose gels and transferred to Hybond-N membrane. The 390 bp EcoRI fragment from A3AR cDNA clone of mouse (TAA3I.S), kindly supplied by Dr Kathia Ravid, was prepared by random-primed synthesis. Probes were used in RNA blot analysis at a hybridization temperature of 42° C. in the presence of 50% formamide.

[3] = tested on: adjuvant induced arthritis; assay: Adjuvant induced arthritis (AIA) in rats, clinical and histological score; type: in vivo; conditions: administered 30 minutes prior to IB-MECA
Description: AIA in Rats: Female Lewis rats, aged 8-12 weeks, obtained from Harlan Laboratories (Jerusalem, Israel), were injected subcutaneously (s.c.) at the tail base with 100 μl of suspension composed of incomplete Freund's adjuvant (IFA) with 10 mg/ml heat killed Mycobacterium tuberculosis, (Mt) H37Ra, (Difco, Detroit, USA). To assess the clinical disease activity score, the animals were inspected every second day for clinical arthritis. The scoring system ranged from 0-4 of each limb: 0-no arthritis; 1-redness or swelling of one toe/finger joint; 2-redness and swelling of more than one toe/finger joints; 3-the ankle and tarsal-metatarsal joints involvement; 4-entire paw redness or swelling. The arthritic score was calculated by adding the four individual legs' score to a maximum of 16. For histological scoring, Animals were sacrificed, the legs were removed up to the knee level, fixed in 10% formaldehyde, decalcified, dehydrated, paraffin-embedded, cut into 4 μm sections and stained by Hematoxylin-Eosin. The assessment of all pathologic findings were performed blind using semi-quantitative grading scales of 0 to 4 for the following parameters: a) extent of inflammatory cells' infiltration to the joint tissues; b) synovial lining cell hyperplasia; c) pannus formation; and d) joint cartilage layers destruction. […] TNF-α was measured in synovia, DLN and spleen tissues derived from control and CF101 treated rats. […] Protein concentrations were determined using the Bio-Rad protein assay dye reagent. […] Bands were recorded using BCIP/NBT color development kit (Promega, Madison, Wis., USA). Densitometry of protein expression was normalized against β-actin and expressed as % of control. […]

[4] = tested on: A3AR, A2AR, PI3K, PKB/Akt, IKKα/β, NF-κB, TNF-α, GSK-3β, caspase-3; assay: Western blot of A3AR and downstream signaling proteins in DLN and synovial tissue of AIA rats; type: in vivo; conditions: antagonist followed by IB-MECA

Compound | modulatory effect of IB-MECA on PKA and GSK-3β in the presence of the agent (PKA and GSK-3β) | effect on IB-MECA-induced modulation of A3AR protein expression (A3AR [1]) | further results
Nc1ncnc2c1nc(Br)n2[C@@H]1O[C@@H]2COP(=O)(O)O[C@H]2[C@H]1O [8-Br-cAMP] | reversed | – | –
CC(C)C[C@@H](C=O)NC(=O)[C@H](CC(C)C)NC(=O)[C@H](CC(C)C)NC(=O)OCc1ccccc1 [MG132] (Cbz-Leu-Leu-Leu-aldehyde) | – | prevented A3AR down-regulation | –
CCCOC(=O)c1c(-c2ccccc2)nc(CC)c(C(=O)SCC)c1CCC [MRS1523] | reversed | – | effect on IB-MECA-induced A3AR mRNA expression (A3AR [2]): reversed the increase in mRNA expression
O=C(Cc1ccccc1)Nc1nc2ccc(Cl)cc2c2nc(-c3ccco3)nn12 [MRS 1220] | – | – | effect on the anti-inflammatory response of IB-MECA (clinical score) [3]: nullified; also recorded: nullification; effect on IB-MECA-induced A3AR modulation [4]: blocked this modulation
C[C@@H]1C[C@@H]([C@H](O)CC2CC(=O)NC(=O)C2)C(=O)[C@@H](C)C1 [cycloheximide] | – | inhibited receptor up-regulation | –
